Reference: paper PMC3388911, “Structure of Leishmania major cysteine synthase” (Acta Crystallographica Section F: Structural Biology and …, 2012)
Like-named read-outs stand apart in the source and are kept apart here. Where a SMILES comes first, the peptide text is derived from it. Where no end group is shown, it is not given here. The star is where a group is joined. Cbz = O=C(OCc1ccccc1)*

Legend:
[1] = target: T1, LmCS (L. major cysteine synthase) (Leishmania major, UniProt Q4Q159); assay: biochemical
T1 sequence (Q4Q159 1-333): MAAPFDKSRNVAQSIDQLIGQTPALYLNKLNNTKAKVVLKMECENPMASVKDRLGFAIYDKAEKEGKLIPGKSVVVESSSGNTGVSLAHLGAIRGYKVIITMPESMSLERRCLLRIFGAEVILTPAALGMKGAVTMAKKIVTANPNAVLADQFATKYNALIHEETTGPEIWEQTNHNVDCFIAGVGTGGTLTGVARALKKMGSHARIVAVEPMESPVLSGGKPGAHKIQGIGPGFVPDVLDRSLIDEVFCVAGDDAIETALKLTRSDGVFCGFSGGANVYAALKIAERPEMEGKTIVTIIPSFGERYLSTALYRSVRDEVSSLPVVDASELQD

[2] = tested on: Mycobacterium tuberculosis CS (OASS); conditions: ref Schnell et al., 2007; cited from earlier work
[3] = target: T2, AtOAS-TL (A. thaliana O-acetylserine thiol-lyase) (Arabidopsis thaliana, UniProt P47998); conditions: read-out: AtOAS-TL IC50; 3 mM OAS, 2 mM sodium sulfide, pH 7.8, room temperature; values with ± are mean ± SD of three determinations, others single IC50 curve
T2 sequence (P47998 whole entry): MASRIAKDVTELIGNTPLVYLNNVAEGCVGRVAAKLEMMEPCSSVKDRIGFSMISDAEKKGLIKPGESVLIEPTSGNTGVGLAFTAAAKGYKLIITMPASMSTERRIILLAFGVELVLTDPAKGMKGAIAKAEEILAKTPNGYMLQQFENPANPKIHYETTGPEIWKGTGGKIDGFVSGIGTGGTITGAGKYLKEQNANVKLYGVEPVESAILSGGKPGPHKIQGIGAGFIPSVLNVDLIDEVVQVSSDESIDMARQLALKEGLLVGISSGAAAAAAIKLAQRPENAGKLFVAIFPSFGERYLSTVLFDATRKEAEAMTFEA

[4] = target: T2, AtOAS-TL (A. thaliana O-acetylserine thiol-lyase); assay: biochemical
[5] = target: T3, Leishmania major cysteine synthase, C-terminally His-tagged (biochemical analysis) (Leishmania major) (UniProt Q4Q159)
T3 sequence: T1 sequence (Q4Q159 1-333)

[6] = target: Arabidopsis thaliana O-acetylserine thiol-lyase (Arabidopsis thaliana, UniProt P47998 1-322); assay: cell-based or functional assay
Arabidopsis thaliana O-acetylserine thiol-lyase, sequence (P47998 whole entry): as above

[7] = target: Arabidopsis thaliana O-acetylserine thiol-lyase (Arabidopsis thaliana) (UniProt P47998)
Arabidopsis thaliana O-acetylserine thiol-lyase (Arabidopsis thaliana), sequence (P47998 whole entry): as above

[8] = target: the molecule itself; assay: crystal structure; hanging drop at 293 K, 7.5% PGA-LM, 19% PEG 3350, 0.1 M Tris-HCl pH 7.8; P212121, dimer in the asymmetric unit; 1.8 Å; molecular replacement
[9] = 3 mM OAS, 2 mM sodium sulfide, pH 7.8, room temperature, values with ± are mean ± SD of three determinations, others single IC50 curve, read-out: LmCS IC50
[10] = LmCS IC50, 3 mM OAS, 2 mM sodium sulfide, pH 7.8, room temperature, values with ± are mean ± SD of three determinations, others single IC50 curve

CC[C@H](C)[C@H](NC(=O)Cc1c[nH]c2ccccc12)C(=O)O [N-3-Indolylacetyl-L-isoleucine]
IC50 [1, 9]: 260 µM

DFSI
type of inhibition of M. tuberculosis OASS [2]: competitive inhibitor

CC[C@H](C)[C@H](NC(=O)CNC(=O)[C@H](CO)NC(=O)CN)C(=O)O [GSGI] (H-GSGI-OH)
IC50 ([1]; LmCS IC50, 3 mM OAS, 2 mM sodium sulfide): ~1500 µM | IC50 [1, 10]: 1500 µM | IC50 [3]: ≤ 2000 µM

CC[C@H](C)[C@H](NC(=O)[C@@H](NC(=O)[C@H](Cc1ccc(O)cc1)NC(=O)[C@@H](N)CC(=O)O)C(C)C)C(=O)O [DYVI] (H-DYVI-OH)
Ki [1]: 4 µM | IC50 [1, 10]: 7 ± 1 µM

DGSGI [DGSGI]
IC50 [1, 10]: 620 ± 50 µM | IC50 [4]: 170 µM

CC[C@H](C)[C@H](NC(=O)[C@@H](NC(=O)OCc1ccccc1)C(C)C)C(=O)O [N-CBZ-L-valine-isoleucine] (Cbz-Val-Ile-OH)
IC50 [1]: 1410 µM

CC[C@H](C)[C@H](N)C(=O)O [L-Isoleucine]
IC50 [1, 9]: > 4000 µM | inhibition of LmCS ([1]; at 4 mM): no activity

(γ-Glu)4
inhibition of LmCS ([1]; tested up to a concentration of 500 µM): unable to detect any significant inhibition | inhibition of LmCS ([1]; tested up to a concentration of 500 µM, listed as D-glutamate tetrapeptide): insignificant inhibitory activity

EGDGSGI [EGDGSGI]
IC50 [1, 10]: 270 ± 70 µM | IC50 [4]: 240 µM

CC[C@H](C)[C@H](NC(=O)OCc1ccccc1)C(=O)O [N-CBZ-L-isoleucine]
IC50 [1]: 320 µM

DYVI (not fully specified) [DYVI, peptide based on the C-terminus of A. thaliana serine acetyltransferase]
IC50 of inhibition of cysteine synthase activity (cysteine production; 3 mM OAS, 2 mM sodium sulfide) [5]: 7 µM | IC50 of inhibition of cysteine synthase activity (cysteine production; 3 mM OAS, 2 mM sodium sulfide) [6]: 8 µM

EGDGSGI [EGDGSGI, Leishmania SAT C-terminal heptapeptide]
IC50 of inhibition of cysteine synthase activity (cysteine production; 3 mM OAS, 2 mM sodium sulfide); single IC50 curve [7]: 240 µM | IC50 of inhibition of cysteine synthase activity (cysteine production; 3 mM OAS, 2 mM sodium sulfide) [5]: 270 µM

B1: Leishmania major cysteine synthase (crystallised form, His tag cleaved) (enzyme)
chain: T1 sequence (Q4Q159 1-333)
notes: Leishmania major cysteine synthase (EC 2.5.1.47); LmCS gene subcloned from pET21a+ into pET15bTEV; theoretical mass of one subunit 35.6 kDa; residues 3-213 and 241-333 (subunit A) and 4-214 and 241-333 (subunit B) are seen in the model; The pyridoxal phosphate cofactor was lost in the crystal; A fragment of gamma-poly-D-glutamic acid lies in the active site; also called LmCS; L. major CS; source: …
stoichiometry N [8]: 2

GSGI [GSGI, Leishmania SAT C-terminal peptide]
IC50 of inhibition of cysteine synthase activity (cysteine production; 3 mM OAS, 2 mM sodium sulfide); single IC50 curve [7]: < 2000 µM | IC50 of inhibition of cysteine synthase activity (cysteine production; 3 mM OAS, 2 mM sodium sulfide); single IC50 curve [5]: 1500 µM

DGSGI [DGSGI, Leishmania SAT C-terminal peptide]
IC50 of inhibition of cysteine synthase activity (cysteine production; 3 mM OAS, 2 mM sodium sulfide); single IC50 curve [7]: 170 µM | IC50 of inhibition of cysteine synthase activity (cysteine production; 3 mM OAS, 2 mM sodium sulfide) [5]: 620 µM
